Test results taken from patent US5912356A, “Antiviral nucleoside analogues containing a substituted benzimidazole base attached to a carbocyclic ring” (Glaxo Wellcome Inc., priority 1997, dated 1999).

What was measured:
[1] = test system: Human cytomegalovirus (HCMV); experiment: Anti-HCMV plaque reduction assay in MRC5 cell monolayers; assay type: cell-based; details: Human betaherpesvirus 5, 50% inhibitory concentration, MRC5 cells (human embryonic lung)
Protocol: Human cytomegalovirus (HCMV) is assayed in monolayers of MRC5 cells (human embryonic lung) in multiwell trays. Activity of compounds is determined in the plaque reduction assay, in which a cell monolayer is infected with a suspension of HCMV. A range of concentrations of the compound to be tested (of known molarity) is then incorporated into the carboxymethyl cellulose overlay. Plaque numbers of each concentration are expressed as percentage of the control and a dose-response curve is drawn. From this curve the 50% inhibitory concentration (IC50) is estimated.

HBV = experiment: Anti-HBV assay: HBV DNA in supernatants of HBV-producing cells (HepG2 2.2.15, P5A), immunoaffinity capture, PCR and hybrid-capture detection; assay type: cell-based, hepatitis B virus (HBV); details: 50 percent decrease in HBV DNA, HepG2 2.2.15, P5A cell line, two values per compound, ganciclovir (control): average of 10 values
Protocol: Anti-HBV activity of compounds of formula (I) and (I-1) was determined with a high-capacity assay for assessing efficacy. Supernatants from growing HBV-producing cells (HepG2 2.2.15, P5A cell line) in 96-well plates are applied to microtiter plate wells which have been coated with a specific monoclonal antibody to HBV surface antigen (HBsAg). Virus particles present in the supernatants bind to the antibody and remain immobilized while other debris is removed by washing. These virus particles are then denatured to release HBV DNA strands which are subsequently amplified by the polymerase chain reaction and detected with a calorimetric hybrid-capture assay. Quantitation is achieved through fitting of a standard curve to dilutions of a cell supernatant with known HBV DNA content. By comparing HBV DNA levels of untreated control cell supernatants with supernatants containing a compound of formula (I) or (I-1), a measure of anti-HBV effectiveness is obtained.
b. Immunoaffinity Capture of HBV:
HBV producer cells, 2500 cells/well, were seeded in 96-well culture dishes in RPMI/10% fetal bovine serum/2 mM glutamine (RPMI/10/2:). Media were replenished on days 1, 3, 5, and 7 with dilutions of a compound of formula (1) or (I-1) in RPMI/10/2 to a final volume of 150 uL. Fifty uL of mouse monoclonal anti-HBsAG antibody (10 ug/mL in PBS) were added to each well of a round-bottom microtiter plate. After incubation overnight at 4° C., the solutions were aspirated and replaced with 100 uL of 0.1% BSA in PBS. Samples were incubated for 2 hours at 37° C. and washed three times with PB S/0/01% Tween-20 (PBS/T) using a Nunc Washer. Ten uL of 0.035% Tween 20 in PBS were then added to all wells by Pro/Pette. Cell supernatants (25 uL) containing extracellular virion DNA were transferred into wells by Pro/Pette; the final Tween concentration is 0.01%. Twenty-five uL HBV standard media dilutions in RPMI/10/2 were added to 2 rows of wells to serve as an internal standard curve for quantitation, and the plates were sealed and incubated at 4° C. overnight. Samples were washed 5 times with PBS/T and 2 times with PBS, aspirating the last wash. Next, 25 uL of 0.09N NaOH/0.01% NP40 were added to each well by Pro/Pette, and the sample wells were sealed and incubated at 37° C. for 60 minutes. Samples were then neutralized with 25 uL of 0.09N HCl/100 mM tris (pH 8.3).
c. Polymerase Chain Reaction (PCR):
Polymerase chain reaction (Saiki, R. K. et al., Science, 239 (4839) 487-91 (1988)) was carried out on 5 uL samples, using a Perkin Elmer PCR kit. PCR is performed in "MicroAmp tubes" in a final volume of 25 uL. Primers were chosen from conserved regions in the HBV genome, as determined by alignment of several sequences. One primer is biotinylated at the 5-prime end to facilitate hybrid-capture detection of the PCR products. All primers were purchased from Synthecell Corp., Rockville, Md. 20850.
d. Hybrid-Capture Detection of PCR Products:
PCR products were detected with horse radish peroxidase-labeled oligonucleotide probes (Synthecell Corp., Rockville, Md. 20850), which hybridize to biotinylated strands of denatured PCR products directly in streptavidin-coated microtiter plate wells, using essentially the method of Holodiniy, M. et al., BioTechniques, 12 (1) 37-39 (1992). Modifications included the use of […] PCR reaction volumes and sodium hydroxide denaturation instead of heat. Simultaneous binding of the biotin moiety to the plate-bound streptavidin during the hybridization serves to "capture" the hybrids. Unbound labeled probes were washed away before calorimetric determination of the bound (hybridized) horse radish peroxidase. Quantities of HBV DNA present in the original samples were calculated by comparison with standards. These values were then compared to those from untreated cell cultures to determine the extent of anti-HBV activity.
IC50 (the median inhibitory concentration) is the amount of compound which produces a 50 percent decrease in HBV DNA. […]

[2] = Hepatitis B virus, HepG2 2.2.15, approximate IC50

Structure (SMILES)	IC50 [1] [nM]	IC50 (HBV; [2]) [nM]	IC50 (HBV; approximate IC50) [nM]
OC[C@@H]1C[C@H](n2c(Br)nc3cc(Cl)c(Cl)cc32)[C@@H](O)[C@H]1O (relative stereo) [Ex. 4, (±)-(1R*, 2S*, 3S*, 5S*)-5-(2-Bromo-5,6-dichloro-1H-benzimidazol-1yl)-3-(hydroxymethyl)-1,2-cyclopentanediol]	1900		
OC[C@@H]1C[C@H](n2c(NC3CC3)nc3cc(Cl)c(Cl)cc32)[C@@H](O)[C@H]1O [Ex. 32, (1R, 2S, 3S, 5S)-5-[5,6-Dichloro-2-(cyclopropylamino)-1H-benzimidazol-1-yl]-3-(hydroxymethyl)-1,2-cyclopentanediol]		1300	790
CC(C)Nc1nc2cc(Cl)c(Cl)cc2n1[C@H]1C[C@@H](CO)[C@H](O)[C@@H]1O [Ex. 33, (1R, 2S, 3S, 5S)-5-[5,6-Dichloro-2-(isopropylamino)-1H-benzimidazol-1-yl]-3-(hydroxymethyl)-1,2-cyclopentanediol]		440	500
CC(C)(C)Nc1nc2cc(Cl)c(Cl)cc2n1[C@H]1C[C@@H](CO)[C@H](O)[C@@H]1O [Ex. 40, (1R, 2S, 3S, 5S)-5-[2-(tert-Butylamino)-5,6-dichloro-1H-benzimidazol-1-yl]-3-(hydroxymethyl)-1,2-cyclopentanediol]			1400
Nc1nc(O)c2ncn(COC(CO)CO)c2n1 [ganciclovir, reference compound]		1100	
